Where only a bound is given, the exact number is not on record here.

One data set relates to recombinant human cytomegalovirus (HCMV). As to the kind of experiment: microbe, parasite or virus in culture. The settings on record: Human betaherpesvirus 5, HFF. It is filed as cell-based. The source says:
For the assessment of activity against human CMV, a method was used which is similar to that described in Kohler, et al. (1994) J. Virol. 68:6589-6597. Briefly, a recombinant human cytomegalovirus (HCMV) was made containing a marker gene (luciferase) under the control of the promoter for the late 28 kDa viral structural phosphoprotein pp28. Human foreskin fibroblast (HFF) cells were infected with the recombinant HCMV virus (moi (multiplicity of infection) 5), placed into 96-well plates, and cultured under standard cell-culture conditions. […] The level of luciferase expression was measured 24 h after treatment with the test compounds. […] As an additional control, the cytotoxicity of test compounds on untreated HFF cells was also evaluated in cultured cell growth experiments.
Take `CCC(Nc1nc(C)c([N+](=O)[O-])c(-n2ccnc2)n1)c1ccccc1` (centres unmarked) [2-(1-phenyl-1-propylamino)-4-(imidazol-1-yl)-6-methyl-5-nitropyrimidine]: the IC50 was greater than 0.5 µM.
The same measure, in the same setting: the result for `Cc1nc(NC2Cc3ccccc3C2)nc(-n2ccnc2C)c1[N+](=O)[O-]` [2-(2-indanamino)-4-(2-methylimidazoyl)-6-methyl-5-nitropyrimidine] reads greater than 0.5 µM; that for `Cc1nc(NC2Cc3ccccc3C2)nc(-n2ccnc2)c1[N+](=O)[O-]` [2-(2-indanamino)-4-imidazolyl-6-methyl-5-nitropyrimidine], greater than 0.5 µM; that for `CCc1nccn1-c1nc(NC2CCc3c(F)cc(F)cc32)nc(C)c1[N+](=O)[O-]` (centres unmarked) [2-(4,6-difluoro-1-indanamino)-4-(2-ethylimidazolyl)-6-methyl-5-nitropyrimidine], 0.1 to 0.5 µM.
Turning to `Cc1nc(NC2CCc3c(F)cc(F)cc32)nc(-n2ccnc2C)c1[N+](=O)[O-]` (centres unmarked) [2-(4,6-difluoro-1-indanamino)-4-(2-methylimidazolyl)-6-methyl-5-nitropyrimidine], the 50% inhibitory concentration (IC50) was 0.1 to 0.5 µM.
Turning to `Cc1nc(NC2CCc3c(F)cc(F)cc32)nc(-n2ccnc2)c1[N+](=O)[O-]` (centres unmarked) [2-(4,6-difluoro-1-indanamino)-4-imidazolyl-6-methyl-5-nitropyrimidine], the IC50 was in the range of 0.1 to 0.5 µM.
Still for that read-out and setting: the result for `Cc1nc(NCc2ccc(C(F)(F)F)cc2)nc(-n2ccnc2C)c1[N+](=O)[O-]` [2-(4-trifluoromethylbenzylamino)-4-(2-methylimidazol-1-yl)-6-methyl-5-nitropyrimidine] reads 0.1 to 0.5 µM.
Same read-out and setting: the result for `CCCCN(Cc1ccccc1)c1nc(C)c([N+](=O)[O-])c(-n2ccnc2C)n1` [Compound m] reads 2 µM.
Still for that read-out and setting: the result for `Cc1nc(N(Cc2ccccc2)Cc2ccccc2)nc(-n2ccnc2C)c1[N+](=O)[O-]` [Compound o] reads 2 µM; that for `Cc1nc(N2CCC(C)CC2)nc(-n2ccnc2C)c1[N+](=O)[O-]` [Compound p], 0.3 µM.
`CCCCN(CC1CC1)c1nc(C)c([N+](=O)[O-])c(-n2ccnc2C)n1` [Compound q]: the concentration for half-maximal inhibition (IC50) came out at 3 µM.
For the molecule `CCc1nc(N(C)c2ccccc2)nc(-n2ccnc2C)c1[N+](=O)[O-]` [c], the half-maximal inhibitory concentration (IC50) was 0.1 µM.
Still for that read-out and setting: the result for `Cc1nc(-n2ccnc2C)nc(N(C)Cc2ccccc2)c1[N+](=O)[O-]` [f] reads 6 µM; that for `Cc1nc(N(C)c2ccc(Cl)cc2)nc(-n2ccnc2C)c1[N+](=O)[O-]` [g], 0.8 µM.
Same read-out and setting: the result for `Cc1nccn1-c1nc(N(C)c2ccccc2)nc(C(C)C)c1[N+](=O)[O-]` [h] reads 0.3 µM; that for `CCN(CC)c1nc(C)c([N+](=O)[O-])c(-n2ccnc2C)n1` [k], 1 µM.
Regarding `Cc1cn(-c2nc(N(C)c3ccccc3)nc(C)c2[N+](=O)[O-])cn1` [t], the IC50 turned out to be 10 µM.
Take `CCCOc1nc(C)c([N+](=O)[O-])c(-n2ccnc2C)n1` [x, 2-(propyloxy)-4-(2-methylimidazol-1yl)-6-methyl-5-nitropyrimidine]: the half-inhibitory concentration (IC50) was greater than 0.5 µM.

Test system in the next data set: not given
Test: not given
Settings: not given
`Cc1nc(NC2Cc3ccccc3C2)nc(-n2ccnc2C)c1[N+](=O)[O-].Cl` registered a melting point of 184 to 185 °C.
On the same count and under the same terms, the result for `CC[C@H]1CCCCC1Nc1nc(C)c([N+](=O)[O-])c(-n2ccnc2)n1` (some centres unmarked) reads 123 to 124 °C.

The values are drawn from patent US20030130264A1 (priority 2001, published 2003).
